# Source: publication PMC9356039, “Multifunctional synthetic nano-chaperone for peptide folding and intracellular delivery” (Nature Communications, 2022)
# Test: CD spectroscopy, α-helicity by CONTIN-LL
# Format: physicochemical
# Conditions: for helix1 / helix2 / helix % / strand1 / strand2 / total helix / turns / unordered: CONTINLL from CD spectra
# Protocol: CD spectra were measured using a J-810 spectropolarimeter (JASCO, Japan). Spectra were recorded from 250 nm to 190 nm wavelength using a 1 cm path-length cuvette. Scans were repeated five times and averaged. Molar ellipticity was calculated per amino acid residue. The concentrations of SNCP and p53pep were 0.2 mg/mL and 20 μM, respectively. All sample suspensions were incubated at least for 2 days at room temperature before CD measurement. To perform temperature-dependent CD experiments, the spectra were recorded at 10 °C interval over a temperature range of 25 to 75 °C, with 30 min incubation time to reach equilibrium at each temperature. The α-helicity of peptides was calculated by using the CONTIN-LL algorithms provided from the DICHROWEB server.
smiles,measurement,setting,value
CC(C)C[C@@H]1NC(=O)[C@H](CC(C)C)NC(=O)[C@H](CCCNC(=N)N)NC(=O)[C@H](Cc2c[nH]c3ccccc23)NC(=O)[C@H](CC(C)C)NC(=O)[C@H](CC(N)=O)NC(=O)[C@H](NC(=O)[C@H](Cc2ccccc2)NC(=O)[C@@H](NC(=O)[C@H](CCC(N)=O)NC(=O)[C@H](CCC(N)=O)NC(=O)[C@H](CO)NC(=O)[C@H](CCC(N)=O)NC(=O)CNC(=O)CNC(=O)c2ccc3c(c2)C(=O)OC32c3ccc(O)cc3Oc3cc(O)ccc32)[C@@H](C)O)CCCCNC(=O)CCc2cn(nn2)CCC[C@@H](C(=O)N[C@@H](CCC(N)=O)C(=O)N[C@@H](CC(N)=O)C(N)=O)NC1=O [st-p53pep],helix1,25 ℃,0.186
same,helix2,25 ℃,0.16
same,helix %,25 ℃,34.6%
same,strand1,25 ℃,0.062
same,strand2,25 ℃,0.054
same,total helix,25 ℃,0.346
same,turns,25 ℃,0.123
same,unordered,25 ℃,0.415
same,helix1,35 ℃,0.176
same,helix2,35 ℃,0.154
same,helix %,35 ℃,33%
same,strand1,35 ℃,0.059
same,strand2,35 ℃,0.054
same,total helix,35 ℃,0.33
same,turns,35 ℃,0.092
same,unordered,35 ℃,0.464
same,helix1,45 ℃,0.187
same,helix2,45 ℃,0.158
same,helix %,45 ℃,34.5%
same,strand1,45 ℃,0.052
same,strand2,45 ℃,0.05
same,total helix,45 ℃,0.345
same,turns,45 ℃,0.11
same,unordered,45 ℃,0.444
same,helix1,55 ℃,0.186
same,helix2,55 ℃,0.147
same,helix %,55 ℃,33.3%
same,strand1,55 ℃,0.057
same,strand2,55 ℃,0.049
same,total helix,55 ℃,0.333
same,turns,55 ℃,0.117
same,unordered,55 ℃,0.445
same,helix1,65 ℃,0.088
same,helix2,65 ℃,0.108
same,helix %,65 ℃,19.6%
same,strand1,65 ℃,0.14
same,strand2,65 ℃,0.096
same,total helix,65 ℃,0.196
same,turns,65 ℃,0.134
same,unordered,65 ℃,0.433
same,helix1,75 ℃,0.041
same,helix2,75 ℃,0.06
same,helix %,75 ℃,10.1%
same,strand1,75 ℃,0.132
same,strand2,75 ℃,0.079
same,total helix,75 ℃,0.101
same,turns,75 ℃,0.348
same,unordered,75 ℃,0.341
same,α-helicity,extracted peptide after re-encapsulation in SNCP8,73.4%
same,α-helicity,peptide extracted from SNCP8@st-p53pep,34.6%
